# In ChEMBL document CHEMBL1156612, “The chemical and hydroxyl radical scavenging activity changes of ginsenoside-Rb1 by heat processing” (Bioorg Med Chem Lett, 2008):
# Key:
# Assay type in all cases: functional
# Set-up in all cases: scale not given: the % may be the effect or the level left
# [1] = Antioxidant activity assessed as inhibition of hydroxyl radical production at 0.05% concentration%
# [2] = Antioxidant activity assessed as inhibition of hydroxyl radical production after heat processing
# [3] = Antioxidant activity assessed as inhibition of hydroxyl radical production at 0.5% concentration%
smiles,measurement,setting,value
CC(C)=CCC[C@](C)(O[C@@H]1O[C@H](CO[C@@H]2O[C@H](CO)[C@@H](O)[C@H](O)[C@H]2O)[C@@H](O)[C@H](O)[C@H]1O)[C@H]1CC[C@]2(C)[C@@H]1[C@H](O)C[C@@H]1[C@@]3(C)CC[C@H](O[C@@H]4O[C@H](CO)[C@@H](O)[C@H](O)[C@H]4O[C@@H]4O[C@H](CO)[C@@H](O)[C@H](O)[C@H]4O)C(C)(C)[C@@H]3CC[C@]12C,Activity,[1],47%
same,Activity,[2],42%
same,Activity,[3],24%
